{"source": "paper PMC11474028", "about": "“Lipopeptide antibiotics disrupt interactions of undecaprenyl phosphate with UptA” (Proceedings of the National Academy of Sciences of the …, 2024)", "molecular_target": "UptA (Bacillus subtilis, UniProt O31823)", "sequence (O31823 whole entry)": "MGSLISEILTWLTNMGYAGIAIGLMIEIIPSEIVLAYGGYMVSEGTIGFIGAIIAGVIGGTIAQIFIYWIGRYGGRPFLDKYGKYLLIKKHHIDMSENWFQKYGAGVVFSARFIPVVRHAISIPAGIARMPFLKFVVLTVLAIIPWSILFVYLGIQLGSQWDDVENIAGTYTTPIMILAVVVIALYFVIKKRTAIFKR", "experiment": "biochemical", "assay_type": "binding", "experimental": "We explored the binding affinity of UptA toward C55-P by recording mass spectra for solutions containing 2.5 µM UptA and 0 to 40 µM C55-P in 200 mM ammonium acetate, 0.05% LDAO at pH 8.0. […] Further increase in the concentration of C55-P enhanced the intensity of the UptA:C55-P complex, together with the emergence of additional binding events (Fig. 2A). We deconvoluted the spectra ([34]) to extract mean relative intensities of bound and unbound forms of UptA in the spectral series.\nTo investigate the binding selectivity of UptA for monophosphate (C55-P) versus diphosphate (C55-PP) forms of the lipid carrier, we performed comparative binding assays. First, we recorded mass spectra for a mixture of UptA with increasing concentrations of C55-PP (SI Appendix, Fig. S3). […] We then fit the data to Hill equation to obtain an apparent Kd for this system.\nUptA is a member of the DedA family of transporters whose cellular functions are potentially driven by proton-motive force and provide conditional fitness to bacteria under alkaline conditions ([25], [26], [36]). […] To this end, we equilibrated C55-P with UptA at a protein/ligand molar ratio of 1:4 in a buffer of the same composition but at pH 8.0 and 5.0. […] As a negative control, we tested for pH sensitivity of C55-P binding to MraY, the latter being the downstream enzyme in the peptidoglycan pathway that couples UM5 to C55-P. To this end, we equilibrated MraY and C55-P at a molar ratio of 1:4 in a buffer of pH 8.0 and pH 5.0.\nNext, we investigated the chain length selectivity of UptA by testing its interaction with geranylgeranyl phosphate (C20-P), hexaprenyl phosphate (C30-P), and C55-P; the latter representing the native form of the lipid carrier in the model organisms B. subtilis and E. coli ([39]). For this experiment, we incubated 4 µM UptA with a 10-fold molar excess of C20-P, C30-P, and C55-P at pH 8.0 and recorded spectra under the same conditions. […] The length and stereochemistry of lipid tails can influence their interactions with membrane proteins ([40]).\nDetailed experimental procedures are provided in SI Appendix. Briefly, UptA (wild type and mutants) was expressed in E. coli C43(DE3) cells (Lucigen) with GFP fusion on the C-terminus and solubilized from the membrane fraction by n-dodecyl-β-D-maltopyranoside (DDM). After purification by affinity chromatography, the GFP was cleaved by TEV protease and removed, and UptA was further purified by size-exclusion chromatography in a buffer containing 20 mM Tris-HCl (pH 8.0), 200 mM NaCl, 0.02% DDM. Before measurements, proteins were buffer-exchanged into 0.05% LDAO, 200 mM ammonium acetate at the desired pH using a centrifugal buffer exchange device (Micro Bio-Spin 6, Bio-Rad). Stock solutions of lipids were prepared from chloroform/methanol solution by evaporating aliquots of known volume in a SpeedVac. After drying, the lipid films were weighed and resuspended to a final concentration of 0.5 mM in 200 mM ammonium acetate and 0.05% LDAO by vertexing.", "note": "“Also recorded” adds a separate entry of the source.", "data": [{"smiles": "CC(C)=CCC/C(C)=C/CC/C(C)=C/CC/C(C)=C\\CC/C(C)=C\\CC/C(C)=C\\CC/C(C)=C\\CC/C(C)=C\\CC/C(C)=C\\CC/C(C)=C\\CC/C(C)=C\\COP(=O)(O)O", "note": "[C55-P, undecaprenyl phosphate]", "values": [{"measurement": "protein/ligand molar ratio at which relative intensity of first binding event plateaued", "setting": "2.5 µM UptA, 0 to 40 µM C55-P, pH 8.0, 0.05% LDAO", "result": "~ 4"}, {"measurement": "binding to UptA by lipid chain length (in words)", "setting": "4 µM UptA, 10-fold molar excess (40 µM) of lipid, pH 8.0, 200 mM ammonium acetate, 0.05% LDAO", "result": "highest intensity of protein/ligand complexes; also recorded: more favorably than C55-PP, C30-P, and C20-P"}, {"measurement": "binding to UptA, equimolar mixture (in words)", "setting": "equimolar UptA and C55-P, 200 mM ammonium acetate, 0.05% LDAO, pH 8.0", "result": "high-affinity binding interactions"}, {"measurement": "Kd", "setting": "native MS, 2.5 µM UptA, 0 to 40 µM C55-P, 200 mM ammonium acetate, 0.05% LDAO, pH 8.0, Hill equation fit to mean relative intensities of three replicates, 95% CI: C55-P 5.0 to 6.4 µM, C55-PP 9.5 to 32.8 µM, read-out: apparent Kd for the binding of one ligand molecule (1×) to UptA", "result": 5.7, "unit": "µM"}, {"measurement": "selectivity of UptA for C55-P versus C55-PP (in words)", "setting": "native MS, 200 mM ammonium acetate, pH 8, 0.05% LDAO", "result": "UptA is more selective toward C55-P than C55-PP"}, {"measurement": "pH sensitivity of C55-P binding to UptA (in words)", "setting": "pH 8.0 vs pH 5.0", "result": "environmental pH modulates the interaction of C55-P with UptA; also recorded: less C55-P binding to UptA in the presence of excess H^+"}, {"measurement": "number of C55-P molecules in complex with UptA dimer", "setting": "protein/ligand molar ratio 1:4, pH 8.0", "result": "up to two"}, {"measurement": "factor by which ligand-bound UptA peaks are more intense at pH 8.0 compared to pH 5.0", "setting": "protein/ligand molar ratio 1:4, pH 8.0 vs pH 5.0, 200 mM ammonium acetate, 0.05% LDAO", "result": 3}, {"measurement": "C55-P binding to UptA dimer versus monomer (in words)", "setting": "wild type, protein/ligand molar ratio 1:4, pH 8.0", "result": "dimer interacts more favorably with C55-P than the monomer UptA"}]}]}
